Here are results for three compounds from patent US20020045771A1, “Family of canadensol taxanes, the semi-synthetic preparation and therapeutic use thereof” (Institut National de la Recherche Scientifique, priority 1996, published 2002).

One may read the IC50 as the concentration that gives 50% inhibition.

Data set [1] deals with DA3 mammary adenocarcinoma tumors. The data set is described as follows: In vivo study using DA3 cell model (tumour volume). Also noted: species or system mouse. From the text: Origin: The DA3 cell line used in this study was derived from a hyperplastic mammary outgrowth (preneoplastic lesion) treated with 7,12-dimethylbenzanthracene (DMBA). DMBA-treated explant was then transplanted into the mammary glands of a female BALB/c mouse, and the resulting tumor was used to establish the DA3 cell line. DA3 is an immunogenic and non-metastatic mammary adenocarcinoma.
Source: The cell line used in our study was originally obtained from Dr. Medina in 1993. Stocks of these cells were generated and stored during early passages in liquid nitrogen. One vial from this early stock was cultured and cells generated were used to confirm the absence of viral and mycoplasma infections. Cells were then propagated and stocks of these cells were established and stored in liquid nitrogen for further studies with Dup compounds.
Cell culture: DA3 cells were maintained in RPMI 1640 medium supplemented with 1M mercaptoethanol, 1M Hepes buffer solution, […] sodium pyruvate, 200 mM L-glutamine, 10 mM non-essential amino acids, 1M vitamins, 10% fetal bovine serum, 1% penicillin-streptomycin. Cells were maintained at 37° C. under 5% CO2.
Animal. […] Mice were maintained at the Lady Davis Institute [LDI] Animal Care Facility.
Tumor cell inoculation and treatments. After one week acclimatisation, mice were randomized into a group of 5 per cage. Cages were randomly assigned to specific experimental groups. The mice were then labeled by numbers using the “ear punching” method. DA3 cells were transplanted subcutaneously to mice, as a suspension of tumor cells [1×10^6 viable cells per 0.1 ml], in the right flank. All animals were inoculated at the same site.
For tumor induction, cells were grown to 70% confluence in complete medium and then collected using trypsin-EDTA solution [0.05% trypsin, 0.53 mM EDTA-4Na in HBSS Ca^++, Mg^++ and NaHCO3 free]. cells were then centrifuged and washed three times with phosphate buffer solution and resuspended at a dilution of 0.1 to 1×10^6 cells/0.1 ml. […]

A further data set relates to tubulin. The data set is described as follows: In vitro microtubule assay (tubulin polymerisation, absorbance at 350 nm). The class given is biochemical, calf. To be noted: for concentration dependence of tubulin polymerisation: 5 μM and 10 μM (FIG. 2); for enhancement of tubulin polymerisation / antimitotic activity: same concentration (10 μM), FIG. 3; for tubulin polymerisation / antimitotic activity compared with paclitaxel: same concentration (FIGS. 1-4).

The nature of data set [2]: Toxicity in DA3 tumor-bearing BALB/c mice (body weight, mortality). Particulars: given twice at 40 mg/kg, iv.
Excerpt: Animal. Female BALB/c mice (Charles River Inc.) were used to grow DA3 tumors. Mice were maintained at the Lady Davis Institute [LDI] Animal Care Facility.
Treatment was initiated when tumors become palpable. Drug was given twice (day 1 and day 3) by iv. Control animals were given the same volume of saline solution. The dose of each drug was normalized to mouse body weight.
Tumor measurement. animals were examined every day but the tumor growth was monitored every second or third day using calipers. Parameters measured are: tumor measured along the longest axis (length) and the perpendicular shortest axis (width) and the relative tumor volume (in cm^3) was calculated by the formula: [Length (cm)×(width cm)^2]/2. Tumors which reach the limit size permitted by the Canadian regulation on the use of laboratory animals, or showing any apparent distress or discomfort were immediately sacrificed independently of the experimental protocol [usually 2-3 cm^3 but this depend on animal status and the decision is taken by the animal room personnel]. Animals were subjected, on a daily basis, to general examination.
In a further data set the test system is A2780 cells. The data set is described as follows: MTT cytotoxicity assay. The class given is cell-based, human. Particulars: for % (absorbance relative to control) / Abs.: 72 h; for Abs.: absorbance at 570 nm (MTT); for IC50: A2780, 72 h continuous treatment, MTT. On the procedure: 1—Cell lines and cell culture. The human ovarian adenocarcinoma cell line A2780 was used to evaluate the antiproliferative activity of taxoids. These cells were grown in either RPMI medium supplemented with 10% fetal bovine serum and penicillin-streptomycin antibiotics. Cells were maintained in culture at 37° C. in an atmosphere of 5% CO2.
2—Cytotoxicity assay. Exponentially growing cells (2-3×10^3 cells/[…]) were seeded in 96-well plates and incubated for 16 h. Cells were then treated continuously with the extracts. 72 h later, cell survival was evaluated by replacing the culture media with […] fresh medium containing 10 mM 4-(2-hydroxyethyl)-1 -piperazineethamesulfonic acid buffer, pH 7.4. and […] of 2.5 mg/ml of 3-(4,5-dimethylthiazo-2-yl)-2,5-diphenyltetrazolium bromide (MTT) in PBS, pH 7.4, were then added. After as 3-4 h of incubation at 37° C., the medium and MTT were removed, and […] of DMSO was added to dissolve the precipitate of reduced MTT, followed by addition of […] glycine buffer (0.1M glycine plus 0.1M NaCl, pH 10.5). The formazan crystals were then dissolved and the absorbance was determined at 570 nm with a microplate reader (BIORAD, model 450). The MTT assay distinguished between viable and non-viable cells on the basis for the requirement of physiologically active mitochondria to metabolize the MTT only in viable cells. The IC50 was calculated as the concentration of drug causing a 50% inhibition in the absorbance compared to cells treated with solvent alone, Table I.
Background: Tetrazolium assays rely on reduction of a dye to a coloured formazan, in cell work by metabolically active cells.

The mark [3] stands for this setting: listed as semi-synthetic Canadensol.

SMILES strings stand for the structures. “Also recorded” adds a separate entry of the source.

For the compound `CC(=O)OC1C(=O)[C@]2(C)C(O)CC3OCC3(OC(C)=O)C2C(OC(=O)c2ccccc2)C2(O)CC(OC(=O)C(O)C(NC(=O)C(C)C)c3ccccc3)C(C)=C1C2(C)C` (some centres unmarked) [Canadensol], in data set [1] (given twice at 40 mg/kg, iv), the “period in which antitumor effect was significant” value is “significant from day 30 to day 40 of tumor growth”. Also, in data set [1] (given twice at 40 mg/kg, iv, FIG. 9), the antitumor activity entry was “induce antitumor activity”. Also, the “concentration dependence of tubulin polymerisation” value in the data set on tubulin is on record as “concentration dependent antimitotic effect”; in the data set on tubulin (setting [3]) it was “dose-dependent response”. Moreover, the “enhancement of tubulin polymerisation / antimitotic activity” value is reported as “more effective” in the data set on tubulin and “greater enhancement of tubulin polymerisation than semi-synthetic Taxcultine (ssT) or paclitaxel (P)” with tubulin (setting [3]). The “tubulin polymerisation / antimitotic activity compared with paclitaxel” value is “more active than paclitaxel and taxcultine; also recorded: higher antimitotic activity than paclitaxel” in the data set with tubulin; “higher degree of tubulin polymerisation than Paclitaxel” in the data set with tubulin (setting [3]). For the same compound, the toxic effect result in data set [2] is listed as “No toxic effect was observed”. In addition, the “% (absorbance relative to control)” value in the data set on A2780 cells (0.2 nM) is 100.00%; in the data set on A2780 cells (2 nM), 94.12%; in the data set on A2780 cells (10 nM) it was 77.97%; in the data set on A2780 cells (20 nM), 50.81%; in the data set on A2780 cells (100 nM), 1.63%; with A2780 cells (200 nM), 1.13%. Moreover, the Abs. with A2780 cells (0.2 nM) is 1.598; in the data set with A2780 cells (2 nM) it was 1.504; in the data set on A2780 cells (10 nM), 1.246; with A2780 cells (20 nM) it was 0.812; in the data set with A2780 cells (100 nM) it was 0.026; with A2780 cells (200 nM), 0.018. Further, the “inhibiting the growth of A2780 (comparison)” value in the data set on A2780 cells (FIGS. 6, 7 and Table I) was “as active as paclitaxel or taxcultine”. Further, half-maximal inhibition in the data set on A2780 cells (Homo sapiens) (IC50) was put at 21.3 nM.
Consider `CC(=O)O[C@H]1C(=O)[C@@]2(C)[C@H]([C@H](OC(=O)c3ccccc3)[C@]3(O)C[C@H](OC(=O)[C@H](O)[C@@H](NC(=O)c4ccccc4)c4ccccc4)C(C)=C1C3(C)C)[C@]1(OC(C)=O)CO[C@@H]1C[C@@H]2O` [paclitaxel], for which the antitumor activity entry in data set [1] (tolerable doses (20-40 mg/Kg), iv day 1 and day 3) was “no significant antitumor activity”. In addition, the “% (absorbance relative to control)” value with A2780 cells (0.2 nM) is 101.54%; in the data set on A2780 cells (2 nM) it was 102.16%; in the data set with A2780 cells (10 nM), 81.09%; with A2780 cells (20 nM) it was 36.43%; with A2780 cells (100 nM), 1.47%; in the data set on A2780 cells (200 nM), 1.40%. Moreover, the Abs. in the data set with A2780 cells (0.2 nM) is listed as 1.455; in the data set with A2780 cells (2 nM), 1.464; in the data set on A2780 cells (10 nM), 1.162; with A2780 cells (20 nM), 0.522; in the data set on A2780 cells (100 nM), 0.021; in the data set on A2780 cells (200 nM) it was 0.02. This compound also showed an IC50 in the data set with A2780 cells (Homo sapiens) of 17 nM.
Take `CCCC(=O)N[C@@H](c1ccccc1)[C@@H](O)C(=O)O[C@H]1C[C@@]2(O)[C@@H](OC(=O)c3ccccc3)[C@@H]3[C@]4(OC(C)=O)CO[C@@H]4C[C@H](O)[C@@]3(C)C(=O)[C@H](OC(C)=O)C(=C1C)C2(C)C` [taxcultine]: the “% (absorbance relative to control)” value stood at 100.00% in the data set on A2780 cells (0.2 nM); 100.07% in the data set on A2780 cells (2 nM); 71.21% in the data set with A2780 cells (10 nM); 36.09% in the data set on A2780 cells (20 nM); 2.08% with A2780 cells (100 nM); 1.43% in the data set with A2780 cells (200 nM). Further, the Abs. is recorded as 1.535 in the data set on A2780 cells (0.2 nM); 1.536 in the data set with A2780 cells (2 nM); 1.093 in the data set on A2780 cells (10 nM); 0.554 in the data set on A2780 cells (20 nM); 0.032 in the data set on A2780 cells (100 nM); 0.022 with A2780 cells (200 nM). This compound gave an IC50 in the data set with A2780 cells of 16 nM.
